Key:
Format in all cases: functional
[1] = test system: HT-29; assay: Cytotoxicity against human HT29 cells by SRB assay
[2] = test system: NSCLC; assay: Cytotoxicity against human NSCLC cells by SRB assay
[3] = Cytotoxicity against human renal cancer cells by SRB assay; settings: Cancer cell lines
[4] = Cytotoxicity against human CNS cancer cells by SRB assay; settings: Cancer cell lines
[5] = test system: HCC 2998; assay: Cytotoxicity against human HCC2998 cells by SRB assay
[6] = Cytotoxicity against human ovarian cancer cells by SRB assay; settings: Cancer cell lines
[7] = test system: KM12; assay: Cytotoxicity against human KM12 cells by SRB assay
[8] = test system: HCT-15; assay: Cytotoxicity against human HCT15 cells by SRB assay
[9] = test system: Leukemia cell; assay: Cytotoxicity against human Leukemia cells by SRB assay
[10] = Cytotoxicity against human melanoma cells by SRB assay; settings: Melanoma cell
[11] = Cytotoxicity against human Colon cancer cells by SRB assay; settings: Cancer cell lines
[12] = test system: HCT-116; assay: Cytotoxicity against human HCT116 cells by SRB assay
[13] = test system: SW-620; assay: Cytotoxicity against human SW620 cells by SRB assay
[14] = test system: COLO 205; assay: Cytotoxicity against human COLO205 cells by SRB assay

Row | Structure (SMILES) | TGI [1] [µM] | TGI [2] [µM] | TGI [3] [µM] | TGI [4] [µM] | TGI [5] [µM] | TGI [6] [µM] | TGI [7] [µM] | TGI [8] [µM] | TGI [9] [µM] | TGI [10] [µM] | TGI [11] [µM] | TGI [12] [µM] | TGI [13] [µM] | TGI [14] [µM]
1 | C=C(C=O)[C@H](C)[C@@H]1CC[C@]23C[C@]12CC[C@@H]1[C@@]2(C)CC[C@@H](OC(C)=O)C(C)(C)[C@@H]2C[C@@H](O[C@@H]2O[C@H](COC(C)=O)[C@@H](O)[C@H](O)[C@H]2O)[C@]13C [CUMINDYSODIDE A] | 11.9 | 12.5 | 10.8 | 1.4 | 1.4 | 10.4 | 9.5 | 7.5 | 4 | 6.9 | 5 | 1.4 | 1.4 | 1.4
2 | C=C(C)[C@@H](O)[C@H](O)C[C@H](C)[C@@H]1CC[C@]23C[C@]12CC[C@@H]1[C@@]2(C)CC[C@@H](OC(C)=O)C(C)(C)[C@@H]2C[C@@H](O[C@@H]2O[C@H](COC(C)=O)[C@@H](O)[C@H](O)[C@H]2O)[C@]13C [CUMINGIANOSIDE D] | 8.77 | 11.7 | 12.7 | 10.9 | 12.4 | 12.7 | 11.3 | 10.4 | 8.2 | 12.2 | 11 | 9.27 | 12 | 12.6
3 | CC(=O)OC[C@H]1O[C@@H](O[C@@H]2C[C@H]3C(C)(C)[C@H](OC(C)=O)CC[C@]3(C)[C@H]3CC[C@]45C[C@]4(CC[C@H]5[C@@H](C)C[C@@H](O)[C@@H]4OC4(C)C)[C@@]32C)[C@H](O)[C@@H](O)[C@@H]1O [CUMINGIANOSIDE E] | 1.7 | 14.5 | 10 | 7.9 | 2.7 | 5.9 | 3.8 | 6 | 1.8 | 15.4 | 4.2 | 3.5 | 10 | 1.8
4 | CC(=O)OC[C@H]1O[C@@H](O[C@@H]2C[C@H]3C(C)(C)[C@H](OC(C)=O)CC[C@]3(C)[C@H]3CC[C@]45C[C@]4(CC[C@H]5[C@@H](C)C[C@@H](O)[C@H](O)C(C)(C)O)[C@@]32C)[C@H](O)[C@@H](O)[C@@H]1O [CUMINGIANOSIDE A] | 14.3 | 13.1 | 13.5 | 13.3 | 12.9 | 13.6 | 14.2 | 13.9 | 18.5 | 13.7 | 13.9 | 13.8 | 14.4 | 14
5 | COC(C)(C)[C@@H](O)[C@H](O)C[C@H](C)[C@@H]1CC[C@]23C[C@]12CC[C@@H]1[C@@]2(C)CC[C@@H](OC(C)=O)C(C)(C)[C@@H]2C[C@@H](O[C@@H]2O[C@H](COC(C)=O)[C@@H](O)[C@H](O)[C@H]2O)[C@]13C [CUMINGIANOSIDE C] | 2.5 | 12.4 | 13.2 | 11.6 | 4.9 | 12 | 7.6 | 6.3 | 11.3 | 12.6 | 7.9 | 8.7 | 13.7 | 11.3

Reference: ChEMBL document CHEMBL1158870, “Antitumor agents. 180. Chemical Studies and cytotoxic evaluation of cumingianosides and cumindysoside A, antileukemic triterpene glucosides with a 14,18-cycloapotirucallane skeleton” (1997)
